Reference: patent US8178506B2, “Oligomeric compounds and compositions for use in modulation of small non-coding RNAs” (Regulus Therapeutics Inc., priority 2003, dated 2012)
Entries after “also recorded” stand apart in the source; their conditions may differ. In the oligonucleotide strings, read from the 5' end, every base follows the letter of its sugar. An asterisk marks phosphorothioate; unmarked linkages are phosphodiester. Other units and linkages are bracketed, terminal groups are in braces. A string of capitals states the bases alone. e = 2'-O-(2-methoxyethyl) (MOE); [5mC] = 5-methylcytosine; d = 2'-deoxy (DNA)

Tests used:
Format in all cases: cell-based, human
[1] = tested on: HepG2 cells; assay: Insulin signaling assay in HepG2 cells, marker genes taken together; conditions: for expression of the IGFBP-1, PEPCK-c and follistatin marker genes: 100 nM
[2] = tested on: mir-15a pri-miRNA; assay: mir-15a pri-miRNA expression in T47D cells (real-time RT-PCR); conditions: for levels of the mir-15a pri-miRNA molecule: 100 nM; for mir-15a pri-miRNA expression % UTC: real-time RT-PCR
Excerpt: The gapmer oligomeric compounds targeting the mir-15b and mir-15-a-1 mature miRNAs described above were also transfected into T47D cells according to standard procedures. In addition, uniform 2′-MOE and 2′-MOE gapmer oligomeric compounds targeting the mature mir-15a-1 and mir-15b miRNAs were also transfected into T47D cells, for analysis of their effects on mir-15a-1 and mir-15b pri-miRNA levels. The oligomeric compounds ISIS Number 327927 (SEQ ID NO: 345), a uniform 2′-MOE compound and ISIS Number 345391 (SEQ ID NO: 345), a 2′-MOE 5-10-7 gapmer compound, both target mir-15b. The oligomeric compounds ISIS Number 327951 (SEQ ID NO: 369), a uniform 2′-MOE compound, and ISIS Number 345411 (SEQ ID NO: 369), a 2′-MOE 5-10-7 gapmer compound, both target mir-15a-1. Oligomeric compounds ISIS Number 129686 ([…]; SEQ ID NO: 901), and ISIS Number 129691 ([…]; SEQ ID NO:902), both universal scrambled controls, as well as ISIS Number 116847 ([…]; SEQ ID NO: 844) targeting an unrelated gene, PTEN, were used as negative controls. ISIS Numbers 129686, 129691, and 116847 are phosphorothiated 2′-MOE 5-10-5 gapmers, and all cytosines are 5-methylcytosines. T47D cells (seeded in 12-well plates) were treated with these oligomeric compounds, and RNA was isolated from the treated cells by lysing in 1 mL TRIZOL™ (Invitrogen) and total RNA was prepared using the manufacturer's recommended protocols. To assess the effects of these compounds on expression of the mir-15a or mir-15b pri-miRNA molecules, real-time RT-PCR analysis was performed using either the primer/probe set specific for the mir-15a pri-miRNA molecule described above, or a primer probe set specific for the mir-15b pri-miRNA molecule: ISIS 339320 ([…]; SEQ ID NO: 903) was used as the forward primer for the mir-15b pri-miRNA, ISIS 339321 ([…] ACTGT; SEQ ID NO: 904) was used as the reverse primer for the mir-15b pri-miRNA, and ISIS 339322 ([…]; SEQ ID NO: 905) was used as the probe. Total RNA was quantified using RiboGreen™ RNA quantification reagent (Molecular Probes, Inc. Eugene, Oreg.), expression levels observed for each target were normalized to 5.8S rRNA, and values are expressed relative to the untreated control. Inhibition of expression of the mir15a or mir-15b pri-miRNA molecules upon treatment with these oligomeric compounds is was assessed and expressed as a percentage of RNA levels in untreated control cells.
Using the real-time RT-PCR methods described, the expression levels of the mir-15a pri-miRNA were compared in T47D cells treated with the nested series of uniform 2′-MOE oligomeric compounds, targeting and spanning the entire length of the mir-15a pri-miRNA. The region encompassing the mir-15a primary transcript (the complement of nucleotides 31603159 to 31603468 of GenBank Accession number NT—024524.13; AAATAATTATG […]) is incorporated herein as SEQ ID NO: 906. ISIS Number 356215 (SEQ ID NO: 879) targets a region flanking and immediately 5′ to the predicted 5′ Drosha cleavage site in the mir-15a pri-miRNA. ISIS Number 356218 (SEQ ID NO: 881) targets aregion in the loop of the mir-15a pri-miRNA. ISIS 356227 (SEQ ID NO: 883) targets a region flanking and immediately 3′ to the predicted 3′ Drosha cleavage site in the mir-15a pri-miRNA. Additionally, oligomeric compound ISIS 327951 (SEQ ID NO: 369), a uniform 2′-MOE compound targeting the mature mir-15a-1 miRNA, was tested for comparison. Oligomeric compounds ISIS 327901 (SEQ ID NO: 319) targeting the mature mir-143 miRNA; ISIS 129690, ([…]; SEQ ID NO: 907), a phosphorothioate 5-10-5 MOE gapmer used as a universal scrambled control; and ISIS 116847 ([…]; SEQ ID NO: 844), a uniform 5-10-52′-MOE gapmer targeting an unrelated gene, PTEN, were used as negative controls. Using the transfection methods previously described, T47D cells were treated with 100 nM of each of these oligomeric compounds. […]

[3] = tested on: preadipocytes / differentiating adipocytes; assay: Adipocyte differentiation assay, markers taken together; conditions: differentiating adipocytes, % of UTC (Table 55)
Procedure: Oligomeric compounds of the invention are tested for their effects on preadipocyte differentiation. […] For the other adipocyte differentiation markers assayed, an oligomeric compound targeted to PPAR-γ, also known to inhibit adipocyte differentiation, may be used as a positive control.
Cells are transfected as described herein. […] Untreated control cells receive LIPOFECTIN™ only.
After the cells have reach confluence (approximately three days), they are exposed for an additional three days to differentiation medium (Zen-Bio, Inc., Research Triangle Park, N.C.) containing a PPAR-γ agonist, IBMX, dexamethasone, and insulin. Cells are then fed adipocyte medium (Zen-Bio, Inc.), which is replaced at 2 or 3 day intervals.
For assaying adipocyte differentiation, expression of the four hallmark genes, HSL, aP2, Glut4, and PPARγ, as well as triglyceride (TG) accumulation and leptin secretion were measured in adipocytes transfected with the uniform 2′-MOE phosphorothioate (PS) oligomeric compounds previously described. Cells are lysed on day nine post-transfection, in a guanadinium-containing buffer and total RNA is harvested. Real-time PCR is performed (Applied Biosystems, Prism 7700) on the total RNA using the following primer/probe sets for the adipocyte differentiation hallmark genes: (aP2): forward 5′-GGTGGTGGAATGCGTCATG-3′ (SEQ ID NO: 746), reverse 5′-[…]-3′ (SEQ ID NO: 747), probe 5′-FAM-[…]-TAMRA-3′ (SEQ ID NO: 748); (Glut4): forward 5′-GGCCTCCGCAGGTTCTG-3′ (SEQ ID NO: 749), reverse 5′-[…]-3′ (SEQ ID NO: 750), probe 5′-FAM-[…]-TAMRA-3′ (SEQ ID NO: 751); (HSL): forward 5′-ACCTGCGCACAATGACACA-3′ (SEQ ID NO: 752), reverse 5′-[…]-3′ (SEQ ID NO: 753), probe 5′-FAM-[…]-TAMRA-3′ (SEQ ID NO: 754); (PPAR-γ): forward 5′-[…]-3′ (SEQ ID NO: 755), reverse 5′-[…]-3′ (SEQ ID NO: 756), probe 5′-FAM-[…]-TAMRA-3′ (SEQ ID NO: 757). The amount of total RNA in each sample is determined using a Ribogreen Assay (Molecular Probes, Eugene, Oreg.), and expression levels of the adipocyte differentiation hallmark genes were normalized to total RNA. Leptin protein and triglyceride levels as well as mRNA levels for each of the four adipocyte differentiation hallmark genes are expressed relative to control levels (control=treatment with ISIS-29848 (SEQ ID NO: 737)).
In some embodiments, differentiating adipocytes were treated with uniform 2′-MOE phosphorothioate oligomeric compounds according to the methods described above, and the expression of the four hallmark genes, HSL, aP2, Glut4, and PPARγ, as well as triglyceride (TG) accumulation were measured. […] Undifferentiated adipocytes were also compared as a negative control. […] The effects of TNF-α, also known to inhibit adipocyte differentiation, were also measured.

GAAAGAGACCGGTTCACTGTGA (anti-miR; chemistry not fully specified) [ISIS 327923, uniform 2′-MOE PS; targets mir-128b]
expression of the IGFBP-1, PEPCK-c and follistatin marker genes ([1]; HepG2, 1 nM insulin): increased expression of the IGFBP-1, PEPCK-c and follistatin marker genes

ISIS 356218: uniform 2′-MOE PS; SEQ ID NO: 881; loop of the mir-15a pri-miRNA (antisense eT*eG*eG*e[5mC]*e[5mC]*eT*eG*e[5mC]*eA*e[5mC]*e[5mC]*eT*eT*eT*eT*e[5mC]*eA*eA*eA*eA) [uniform 2′-MOE PS; loop of the mir-15a pri-miRNA]
levels of the mir-15a pri-miRNA molecule [2]: stimulate an increase in levels of the mir-15a pri-miRNA molecule

CACAAATTCGGATCTACAGGGTA (anti-miR; chemistry not fully specified) [ISIS 327949, uniform 2′-MOE PS; targets mir-10a]
expression of the IGFBP-1 and follistatin marker genes ([1]; HepG2, basal (no insulin)): increased expression of the IGFBP-1 and follistatin marker genes

356231 (eT*eT*e[5mC]*eA*eG*eA*eA*eG*eA*eT*e[5mC]*eA*eG*eA*eT*e[5mC]*e[5mC]*eT*eT*eG) [compound 356231]
mir-15a pri-miRNA expression % UTC [2]: 811 % UTC

TGTAAACCATGATGTGCTGCTA (anti-miR; chemistry not fully specified) [ISIS 327927, uniform 2′-MOE PS; targets mir-15b]
five markers of adipocyte differentiation [3]: increase in all five markers of adipocyte differentiation
levels of the mir-15a pri-miRNA molecule [2]: stimulate an increase in levels of the mir-15a pri-miRNA molecule

AACCGATTTCAAATGGTGCTAG (anti-miR; chemistry not fully specified) [ISIS 327913, uniform 2′-MOE PS; targets mir-29c]
expression of the IGFBP-1, PEPCK-c and follistatin marker genes ([1]; HepG2, 1 nM insulin): increased expression of the IGFBP-1, PEPCK-c and follistatin marker genes
expression of the IGFBP-1, PEPCK-c and follistatin marker genes ([1]; HepG2, basal (no insulin)): increased expression of the IGFBP-1, PEPCK-c and follistatin marker genes

CCAAGTTCTGTCATGCACTGA (anti-miR; chemistry not fully specified) [ISIS 327964, uniform 2′-MOE PS; targets mir-152]
expression of the IGFBP-1, PEPCK-c and follistatin marker genes ([1]; HepG2, 1 nM insulin): increased expression of the IGFBP-1, PEPCK-c and follistatin marker genes

ISIS 356232: uniform 2′-MOE PS; targets mir-15a pri-miRNA (antisense eA*eA*eA*eT*eA*eT*eA*eT*eT*eT*eT*e[5mC]*eT*eT*e[5mC]*eA*eG*eA*eA*eG)
levels of the mir-15a pri-miRNA molecule [2]: stimulate an increase in levels of the mir-15a pri-miRNA molecule

116847 (antisense e[5mC]*eT*eG*e[5mC]*eT*dA*dG*d[5mC]*d[5mC]*dT*d[5mC]*dT*dG*dG*dA*eT*eT*eT*eG*eA) [compound 116847]
mir-15a pri-miRNA expression % UTC [2]: 132 % UTC

356232 (eA*eA*eA*eT*eA*eT*eA*eT*eT*eT*eT*e[5mC]*eT*eT*e[5mC]*eA*eG*eA*eA*eG) [compound 356232]
mir-15a pri-miRNA expression % UTC [2]: 631 % UTC

ISIS 356221: uniform 2′-MOE PS; SEQ ID NO: 882; targets mir-15a pri-miRNA (antisense eA*eG*e[5mC]*eA*e[5mC]*eA*eA*eT*eA*eT*eG*eG*e[5mC]*e[5mC]*eT*eG*e[5mC]*eA*e[5mC]*e[5mC]) [uniform 2′-MOE PS; targets mir-15a pri-miRNA]
levels of the mir-15a pri-miRNA molecule [2]: stimulate an increase in levels of the mir-15a pri-miRNA molecule

ISIS 356216: uniform 2′-MOE PS; SEQ ID NO: 880; targets mir-15a pri-miRNA (antisense eG*e[5mC]*eA*e[5mC]*e[5mC]*eT*eT*eT*eT*e[5mC]*eA*eA*eA*eA*eT*e[5mC]*e[5mC]*eA*e[5mC]*eA) [uniform 2′-MOE PS; targets mir-15a pri-miRNA]
levels of the mir-15a pri-miRNA molecule [2]: stimulate an increase in levels of the mir-15a pri-miRNA molecule

ISIS 356215: uniform 2′-MOE PS; SEQ ID NO: 879; region immediately 5′ to 5′ Drosha cleavage site of mir-15a pri-miRNA (antisense eT*eG*e[5mC]*eT*eA*e[5mC]*eT*eT*eT*eA*e[5mC]*eT*e[5mC]*e[5mC]*eA*eA*eG*eG*eT*eT) [uniform 2′-MOE PS; region immediately 5′ to 5′ Drosha cleavage site of mir-15a pri-miRNA]
levels of the mir-15a pri-miRNA molecule [2]: stimulate an increase in levels of the mir-15a pri-miRNA molecule; also recorded: stimulate the greatest increases in expression of the mir-15a pri-miRNA

ISIS 356231: uniform 2′-MOE PS; targets mir-15a pri-miRNA (antisense eT*eT*e[5mC]*eA*eG*eA*eA*eG*eA*eT*e[5mC]*eA*eG*eA*eT*e[5mC]*e[5mC]*eT*eT*eG)
levels of the mir-15a pri-miRNA molecule [2]: stimulate an increase in levels of the mir-15a pri-miRNA molecule
